The text below walks through data of patent publication US11542247B2, “Bi-heteroaryl substitute 1,4-benzodiazepines and uses thereof for the treatment of cancer” (Janssen Pharmaceutica NV, priority 2015, dated 2023).

Structures are written as SMILES.

Holding throughout (experiment): Enzyme binding assay (KINOMEscan)
Conditions in all cases: DiscoveRx, pKd = -log Kd (M)

One experiment concerns the target FGFR3 (Homo sapiens (Human), UniProt P22607). As for the experimental part: (§1) Enzyme Binding Assays (KINOMEscan®)
(§2) Kinase enzyme binding affinities of compounds disclosed herein were determined using the KINOMEscan® technology performed by DiscoveRx Corporation, San Diego, Calif., USA (www.kinomescan.com). Table A2 reports the obtained pKd values, with Kd (M) being the inhibitor binding constant value and with pKd being −log Kd: […]

The target in another experiment is VEGFR2 (Homo sapiens (Human), UniProt P35968). As for the experimental part:
as §1, §2

The target of the next experiment is FGFR1 (Homo sapiens (Human), UniProt P11362). Here is the method:
as §1, §2

The target in another experiment is FGFR2 (Homo sapiens (Human), UniProt P21802). Here is the method: as §1, §2
For the next experiment, the target named is FGFR4 (Homo sapiens (Human), UniProt P22455). As for the experimental part:
as §1, §2

FGFR1, sequence (P11362 22-822): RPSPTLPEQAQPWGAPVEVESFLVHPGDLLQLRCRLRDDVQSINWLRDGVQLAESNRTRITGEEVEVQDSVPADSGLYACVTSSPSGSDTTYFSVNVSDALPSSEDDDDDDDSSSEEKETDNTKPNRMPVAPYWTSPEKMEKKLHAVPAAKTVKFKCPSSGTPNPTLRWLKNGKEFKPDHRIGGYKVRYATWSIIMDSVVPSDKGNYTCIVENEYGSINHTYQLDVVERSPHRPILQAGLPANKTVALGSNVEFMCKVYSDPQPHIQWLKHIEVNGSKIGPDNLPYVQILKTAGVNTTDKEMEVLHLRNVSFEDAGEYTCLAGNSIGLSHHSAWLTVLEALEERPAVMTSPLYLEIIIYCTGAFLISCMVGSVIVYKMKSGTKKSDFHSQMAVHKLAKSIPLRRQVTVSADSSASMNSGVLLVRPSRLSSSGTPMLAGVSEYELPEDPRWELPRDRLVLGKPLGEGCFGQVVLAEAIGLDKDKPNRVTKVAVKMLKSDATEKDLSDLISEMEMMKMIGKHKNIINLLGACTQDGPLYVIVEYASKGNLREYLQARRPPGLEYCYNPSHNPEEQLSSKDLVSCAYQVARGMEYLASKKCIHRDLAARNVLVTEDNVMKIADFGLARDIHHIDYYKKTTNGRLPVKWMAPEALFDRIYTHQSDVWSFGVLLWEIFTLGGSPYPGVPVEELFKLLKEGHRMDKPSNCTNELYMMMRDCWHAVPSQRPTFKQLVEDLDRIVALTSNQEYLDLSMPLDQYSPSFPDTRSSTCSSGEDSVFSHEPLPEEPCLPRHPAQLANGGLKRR
FGFR2, sequence (P21802 22-821): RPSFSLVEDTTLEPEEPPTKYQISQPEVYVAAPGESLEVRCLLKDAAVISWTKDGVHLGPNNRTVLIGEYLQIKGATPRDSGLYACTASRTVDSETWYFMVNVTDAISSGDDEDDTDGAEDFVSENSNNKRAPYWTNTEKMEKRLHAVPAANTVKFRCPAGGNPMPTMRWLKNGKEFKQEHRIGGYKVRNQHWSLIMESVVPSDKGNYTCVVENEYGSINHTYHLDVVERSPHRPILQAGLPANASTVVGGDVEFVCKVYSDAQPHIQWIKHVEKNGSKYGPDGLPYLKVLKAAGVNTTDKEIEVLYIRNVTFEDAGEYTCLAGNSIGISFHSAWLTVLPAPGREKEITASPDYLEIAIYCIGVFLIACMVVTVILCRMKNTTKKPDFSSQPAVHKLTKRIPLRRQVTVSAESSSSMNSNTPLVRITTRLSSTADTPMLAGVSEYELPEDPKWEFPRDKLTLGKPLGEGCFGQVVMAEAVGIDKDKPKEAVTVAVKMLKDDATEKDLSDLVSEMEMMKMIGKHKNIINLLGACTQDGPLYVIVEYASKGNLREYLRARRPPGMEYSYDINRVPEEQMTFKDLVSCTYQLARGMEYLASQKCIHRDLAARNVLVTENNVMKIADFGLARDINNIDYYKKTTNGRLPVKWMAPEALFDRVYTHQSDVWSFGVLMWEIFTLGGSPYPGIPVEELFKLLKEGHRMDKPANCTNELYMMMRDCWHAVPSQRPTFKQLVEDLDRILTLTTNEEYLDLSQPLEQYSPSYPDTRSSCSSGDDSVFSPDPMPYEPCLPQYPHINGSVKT
FGFR4, sequence (P22455 22-802): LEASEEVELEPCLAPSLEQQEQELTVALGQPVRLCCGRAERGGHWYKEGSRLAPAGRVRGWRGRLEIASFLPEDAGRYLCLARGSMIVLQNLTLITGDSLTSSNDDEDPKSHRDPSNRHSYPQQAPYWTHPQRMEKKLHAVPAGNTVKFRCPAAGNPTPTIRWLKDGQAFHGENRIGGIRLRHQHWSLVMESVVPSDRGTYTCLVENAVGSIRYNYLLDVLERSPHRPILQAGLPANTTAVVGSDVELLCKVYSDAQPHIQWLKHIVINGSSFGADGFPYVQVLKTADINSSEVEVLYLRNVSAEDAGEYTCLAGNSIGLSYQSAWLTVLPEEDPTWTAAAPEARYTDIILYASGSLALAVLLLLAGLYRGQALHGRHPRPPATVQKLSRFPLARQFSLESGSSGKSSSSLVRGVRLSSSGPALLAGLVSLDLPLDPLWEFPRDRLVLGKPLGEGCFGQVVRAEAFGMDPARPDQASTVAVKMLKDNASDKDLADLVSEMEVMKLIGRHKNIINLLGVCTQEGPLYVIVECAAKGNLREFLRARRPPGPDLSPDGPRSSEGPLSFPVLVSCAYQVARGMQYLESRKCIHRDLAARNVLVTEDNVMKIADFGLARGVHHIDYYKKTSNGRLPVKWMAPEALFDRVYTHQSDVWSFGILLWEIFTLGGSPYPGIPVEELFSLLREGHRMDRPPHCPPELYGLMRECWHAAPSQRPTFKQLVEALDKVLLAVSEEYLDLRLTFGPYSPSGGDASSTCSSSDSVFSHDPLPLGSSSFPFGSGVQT
VEGFR2, sequence (P35968 20-1356): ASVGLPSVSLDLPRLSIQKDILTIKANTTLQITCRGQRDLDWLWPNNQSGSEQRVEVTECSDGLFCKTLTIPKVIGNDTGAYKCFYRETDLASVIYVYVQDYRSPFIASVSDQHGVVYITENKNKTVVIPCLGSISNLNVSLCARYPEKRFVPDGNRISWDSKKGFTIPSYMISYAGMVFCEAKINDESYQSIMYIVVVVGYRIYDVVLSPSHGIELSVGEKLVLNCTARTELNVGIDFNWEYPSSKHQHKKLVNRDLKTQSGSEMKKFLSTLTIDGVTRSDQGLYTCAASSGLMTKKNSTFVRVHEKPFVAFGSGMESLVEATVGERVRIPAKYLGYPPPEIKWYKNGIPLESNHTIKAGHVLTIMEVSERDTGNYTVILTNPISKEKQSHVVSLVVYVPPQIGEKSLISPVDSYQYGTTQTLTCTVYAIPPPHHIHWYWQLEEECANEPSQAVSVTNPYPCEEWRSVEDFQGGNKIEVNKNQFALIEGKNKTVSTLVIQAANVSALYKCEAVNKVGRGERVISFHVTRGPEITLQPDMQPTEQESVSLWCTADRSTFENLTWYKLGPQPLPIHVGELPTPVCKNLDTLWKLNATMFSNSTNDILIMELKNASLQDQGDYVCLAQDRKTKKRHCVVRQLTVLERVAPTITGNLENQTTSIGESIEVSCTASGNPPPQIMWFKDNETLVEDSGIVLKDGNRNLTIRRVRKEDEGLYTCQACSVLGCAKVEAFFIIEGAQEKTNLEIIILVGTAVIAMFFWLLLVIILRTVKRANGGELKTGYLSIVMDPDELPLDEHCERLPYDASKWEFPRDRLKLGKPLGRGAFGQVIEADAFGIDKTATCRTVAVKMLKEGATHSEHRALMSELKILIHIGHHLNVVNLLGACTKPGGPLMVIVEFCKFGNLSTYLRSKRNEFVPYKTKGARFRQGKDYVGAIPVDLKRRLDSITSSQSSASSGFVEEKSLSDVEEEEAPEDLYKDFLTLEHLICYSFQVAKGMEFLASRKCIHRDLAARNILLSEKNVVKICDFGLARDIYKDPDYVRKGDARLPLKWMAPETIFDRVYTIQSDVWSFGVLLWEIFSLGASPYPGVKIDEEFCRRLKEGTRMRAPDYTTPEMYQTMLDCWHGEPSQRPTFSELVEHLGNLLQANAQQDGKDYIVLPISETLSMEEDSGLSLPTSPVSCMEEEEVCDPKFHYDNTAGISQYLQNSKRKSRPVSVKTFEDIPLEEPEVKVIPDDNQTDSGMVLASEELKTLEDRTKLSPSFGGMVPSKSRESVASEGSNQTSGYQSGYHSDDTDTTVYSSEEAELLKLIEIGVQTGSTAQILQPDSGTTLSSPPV
FGFR3, sequence (P22607 23-806): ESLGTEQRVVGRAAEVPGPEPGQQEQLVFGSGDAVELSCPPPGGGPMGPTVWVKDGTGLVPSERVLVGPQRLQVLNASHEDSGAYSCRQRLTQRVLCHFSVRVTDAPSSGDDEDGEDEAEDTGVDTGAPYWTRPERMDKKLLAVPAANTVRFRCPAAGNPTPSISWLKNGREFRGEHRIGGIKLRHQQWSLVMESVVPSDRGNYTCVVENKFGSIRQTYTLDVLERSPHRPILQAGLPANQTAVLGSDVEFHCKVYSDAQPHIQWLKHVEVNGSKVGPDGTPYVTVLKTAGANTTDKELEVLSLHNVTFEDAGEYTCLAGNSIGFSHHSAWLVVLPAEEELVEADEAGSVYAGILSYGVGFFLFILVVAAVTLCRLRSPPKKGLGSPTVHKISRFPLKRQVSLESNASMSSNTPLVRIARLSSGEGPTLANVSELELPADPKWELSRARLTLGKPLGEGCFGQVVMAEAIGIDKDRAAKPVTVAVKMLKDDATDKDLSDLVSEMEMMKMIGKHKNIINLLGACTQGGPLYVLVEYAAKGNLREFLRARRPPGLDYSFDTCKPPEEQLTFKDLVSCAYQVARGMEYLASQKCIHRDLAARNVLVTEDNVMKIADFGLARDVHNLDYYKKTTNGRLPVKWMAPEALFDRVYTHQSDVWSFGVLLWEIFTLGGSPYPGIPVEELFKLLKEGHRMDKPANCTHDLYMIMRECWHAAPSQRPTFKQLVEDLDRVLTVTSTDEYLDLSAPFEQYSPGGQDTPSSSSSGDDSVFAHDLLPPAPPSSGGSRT

As for `CC(C)N1CCN(c2ccc3ncc(-c4cnn(C)c4)cc3c2)c2cc(O)cc(O)c2C1` [Compound 6], the Kd at FGFR3, at VEGFR2, on FGFR1, on FGFR2 and on FGFR4 was greater than 3.02e-06 M in each case.
Regarding `COc1cc(O)cc2c1CN(C(C)C)CCN2c1ccc2ncc(-c3cnn(C)c3)cc2c1` [Compound 4], the Kd on FGFR3, at VEGFR2, on FGFR1, at FGFR2 and on FGFR4 was greater than 3.02e-06 M in each case.
For `COc1cc(OC)c2c(c1F)N(c1ccc3ncn(-c4cnn(C)c4)c(=O)c3c1)CCN(C(C)C)C2` [Compound 12], the results for the Kd on VEGFR2, at FGFR2 and at FGFR4 were greater than 3.02e-06 M, 1.86e-06 M and greater than 3.02e-06 M, respectively.
Regarding `COc1cc(O)c2c(c1)N(c1ccc3ncc(-c4cnn(C)c4)cc3c1)CCN(C(C)C)C2` [Compound 5], the Kd at VEGFR2, on FGFR2 and at FGFR4 was greater than 3.02e-06 M throughout.
On to `COc1cc(OC)c2c(c1)N(c1ccc3ncc(-c4cnn(C)c4)cc3c1)CCN(C(C)C)C2` [Compound 1], for which the Kd (usually the constant that tells how readily two partners part at equilibrium) on VEGFR2 is greater than 3.02e-06 M; on FGFR2, 1.86e-06 M; at FGFR4, 2.45e-06 M.
For the compound `COc1cc(OC)c2c(c1)N(c1ccc3ncc(-c4cnn(C)c4)cc3n1)CCN(C(C)C)C2` [Compound 9], the Kd was 1.05e-06 M on VEGFR2, 9.33e-07 M at FGFR2 and 1.91e-07 M at FGFR4.
Regarding `COc1cc(OC)c2c(c1)N(c1ccc3ncc(-c4cn[nH]c4)cc3c1)CCN(C(C)C)C2` [Compound 3], the figures for the Kd at VEGFR2, on FGFR2 and on FGFR4 were greater than 3.02e-06 M, 8.91e-07 M and 1.38e-06 M, respectively.
For the compound `COc1cc(OC)c2c(c1)N(c1ccc3ncn(-c4cnn(C)c4)c(=O)c3c1)CCN(C(C)C)C2` [Compound 11], the Kd on FGFR3, at VEGFR2, at FGFR1, on FGFR2 and on FGFR4 was greater than 3.02e-06 M each time.
On to `COc1cc(OC)c2c(c1)N(c1ccc3ncc(-c4cnn(C)c4)nc3n1)CCN(C(C)C)C2` [Compound 7], for which the Kd is greater than 3.02e-06 M at FGFR3; 2.69e-07 M on VEGFR2; greater than 3.02e-06 M on FGFR1; greater than 1e-06 M at FGFR2; greater than 3.02e-06 M on FGFR4.
In the case of `COc1cc(OC)c2c(c1)N(c1ccc3ncc(-c4cnn(C)c4)cc3c1)CCN(C)C2` [Compound 2], the equilibrium dissociation constant (Kd) on VEGFR2, at FGFR2 and on FGFR4 was greater than 3.02e-06 M throughout.
